Common to all, as to type: in vivo
In test [1] the test system is Haemaphysalis longicornis. In words: Test Example 11: coated screw tube contact test against Haemaphysalis longicornis ticks. As to conditions: 48 h, 2 mg in 0.2 mL acetone coated on inner wall of screw tube, unfed nymphal ticks, after 2 days, read-out: Death rate. The protocol: Compound of Present Invention 1-24 (2 mg) was weighed in a screw tube (Maruemu No. 5; 27 x 55 mm), and 0.2 mL of acetone was added thereto, and the screw tube was sealed with a cap to dissolve the compound. The screw tube was rotated and inverted to uniformly coat the drug solution onto the whole inner wall of the tube. After removing the cap, the solution was air-dried for about 2 hours, then unfed nymphal ticks, Haemaphysalis longicornis (5 ticks/group) were released, and the tube was sealed with the cap. After 2 days, the number of dead insects was counted, and the death rate was calculated according to the following equation. Death rate (%) = 100 × (Number of deads insects/Number of tested insects) [formula]

For test [2], the system named is Culex pipiens pallens. The test is described as follows: Test Example 10: larvicidal test in water against Culex pipiens pallens. As to conditions: 24 h, active ingredient concentration 3.5 ppm in ion-exchanged water, last-instar larvae, one day later, read-out: Death rate. The protocol: The formulations of Compounds of Present Invention 1-2, 1-3 and 1-8 as obtained in Formulation Example 5 were diluted with water, so as to have a concentration of the active ingredient of 500 ppm, to prepare a test drug solution.
0.7 ml of the test drug solution was added to 100 ml of ion-exchanged water (active ingredient concentration: 3.5 ppm). 20 last-instar larvae of Culex pipiens pallens were released into the solution. One day later, the life and death of the Culex pipiens pallens was examined, and the number of dead insects was counted to calculate the death rate. Death rate (%) = (Number of deads insects/Number of tested insects) × 100 [formula]

For test [3], the system named is Plutella xylostella. In words: Test Example 6: spray test on cabbage against Plutella xylostella larvae. As to conditions: 120 h, sprayed 20 mL/cup on cabbage, second instar larvae, 5 days at 25°C, read-out: Death rate. The procedure: On the other hand, on cabbage at the third leaf stage planted in a polyethylene cup was sprayed, at a rate 20 mL/cup, the test drug solution. After the drug solution was dried, the foliage part was cut off, and then placed in a 50 mL volume cup. Five second instar larvae of Plutella xylostella were released into the cup, and the cup was sealed with a lid. After the cup was kept at 25°C for 5 days, the number of dead insects was counted. The death rate was calculated according to the following equation. Death rate (%) = (Number of deads insects/Number of tested insects) × 100 [formula]

In test [4] the test system is Adoxophyes orana fasciata. The test is described as follows: Test Example 7: spray test on apple tree against Adoxophyes orana fasciata larvae. The settings on record: in Malus domestica, 168 h, read-out: Death rate. The procedure:
The formulations of Compounds of Present Invention 1-2 and 1-3 as obtained in Formulation Example 5 were diluted with water, so as to have a concentration of the active ingredient of 500 ppm, to prepare a test spray solution.
On the other hand, an apple tree was planted in a plastic cup, and grown until the seventh-eighth true leaf was spread. To the apple tree was sprayed, at a rate of 20 mL/cup, the test drug solution. After the drug solution was dried, 60 first-instar larvae of Adoxophyes orana fasciata were released, and covered with a plastic cup the bottom of which was cut off and on which a filter paper was put, with the plastic cup cover placed upside-down. After 7 days, the number of dead insects was counted, and the death rate was calculated according to the following equation. Death rate (%) = (Number of deads insects/Number of tested insects) × 100 [formula]

Test [5] has as its system Musca domestica. In words: Test Example 8: filter paper and sucrose bait test against Musca domestica. As to conditions: 24 h, read-out: Death rate. The procedure: The formulation of Compound of Present Invention 1-2 as obtained in Formulation Example 5 was diluted with water, so as to have a concentration of the active ingredient of 500 ppm, to prepare a test drug solution.
A filter paper having a diameter of 5.5 cm was spread on the bottom of a polyethylene cup having the same diameter and 0.7 ml of the test drug solution was added dropwise onto the filter paper, and 30 mg of sucrose was uniformly placed as bait. Into the polyethylene cup, 10 female imagoes of Musca domestica were released, and the cup was sealed with a lid. After 24 hours, the life and death of Musca domestica was examined, the number of dead insects was counted, and the death rate was calculated according to the following equation. Death rate (%) = (Number of deads insects/Number of tested insects) × 100 [formula]

SMILES strings stand for the structures.

As to `CCOC(=O)c1ccc(-c2nc3cc(C(F)(F)F)ccc3s2)c(S(=O)(=O)CC)c1` [1-24], in test [1], the mortality at 2 mg/tube is 100%.

As for `CCOC(=O)c1ccc(-c2nc3cc(C(F)(F)F)ccc3n2C)c(S(=O)(=O)CC)c1` [1-8], in test [2], the mortality at 3.5 ppm is at least 95%.

In the case of `CCOC(=O)c1ccc(-c2nc3cc(C(F)(F)F)cnc3n2C)c(S(=O)(=O)CC)c1` [1-3], the mortality at 500 ppm in test [3] was at least 80%; in test [4] it was at least 90%. The mortality at 3.5 ppm in test [2] was at least 95%.

Regarding `CCS(=O)(=O)c1cc(C(=O)OC)ccc1-c1nc2cc(C(F)(F)F)cnc2n1C` [1-2], the mortality at 500 ppm in test [5] is 100%; in test [3], at least 80%; in test [4] it was at least 90%. In addition, in test [2], the mortality at 3.5 ppm is at least 95%.

The values above are taken from patent publication EP2963022A1, “FUSED HETEROCYCLIC COMPOUND AND PEST CONTROL APPLICATIONS THEREOF” (priority 2013, dated 2014).
